Measured values reported in PMC13185819, “De Novo Multi‐Mechanism Antimicrobial Peptide Design via Multimodal Deep Learning” (Advanced Science, 2026).
Values after ≈ are worked out from the molar mass of the structure shown. Residues, ends and D or L forms follow the SMILES beside them.

What was measured:
Type in all cases: cell-based
E. faecium 21 = system: E. faecium 21
Procedure: (§1) Standard strains included S. aureus ATCC33592, S. aureus CICC25138, and Salmonella enterica ATCC14028, which were purchased from the China Center of Industrial Culture Collection (CICC). Standard strains including E.coli CMCC44102, Salmonella enterica CMCC50071, and S. aureus CMCC26003 were purchased from the National Center for Medical Culture Collections (CMCC). […] All experiments using the above strains were carried out in a BSL‐2 laboratory. The clinical laboratory of Qilu Hospital detected bacterial resistance to various antibiotics. All strains were streaked on Nutrient Broth (NB) agar medium and incubated overnight at 37°C.
(§2) The antimicrobial activity of the peptides was examined in sterile 96‐well plates using the broth microdilution according to the CLSI standard. The colonies were suspended in saline solution, the turbidity was adjusted to McFarland 0.5 to reach a bacterial concentration of 10^8 CFU/mL, and again diluted 100 times for the inhibition test. Then, 50 µL of bacterial suspension at 1 × 10^6 CFU/mL was incubated with the same volume of different concentrations of peptide solution [serial twofold dilutions in Mueller–Hinton Broth (Hopebio)]. […] All experiments were performed with three independent replicates.

P. aeruginosa 116 = system: P. aeruginosa 116
Procedure: as §1, §2

E.coli 110 = system: E.coli 110
Procedure: as §1, §2

E.coli 208 = system: E.coli 208
Procedure: as §1, §2

S. aureus ATCC33592 = system: S. aureus ATCC33592
Procedure: as §1, §2

K. pneumoniae 7713 = system: K. pneumoniae 7713
Procedure: as §1, §2

E. faecium 1042 = system: E. faecium 1042
Procedure: as §1, §2

S. aureus 129 = system: S. aureus 129
Procedure: as §1, §2

S. aureus 103 = system: S. aureus 103
Procedure: as §1, §2

P. aeruginosa 112 = system: P. aeruginosa 112
Procedure: as §1, §2

P. aeruginosa 119 = system: P. aeruginosa 119
Procedure: as §1, §2

S. aureus CICC25138 = system: S. aureus CICC25138
Procedure: as §1, §2

E.coli CMCC44102 = system: E.coli CMCC44102
Procedure: as §1, §2

S. aureus CMCC26003 = system: S. aureus CMCC26003
Procedure: as §1, §2

SMILES | MIC (μg/mL) E. faecium 21 (E. faecium 21) [µg/mL] | MIC (μg/mL) P. aeruginosa 116 (P. aeruginosa 116) [µg/mL] | MIC (μg/mL) E.coli 110 (E.coli 110) [µg/mL] | MIC (μg/mL) E.coli 208 (E.coli 208) [µg/mL] | MIC (μg/mL) S. aureus ATCC33592 (S. aureus ATCC33592) [µg/mL] | MIC (μg/mL) K. pneumoniae 7713 (K. pneumoniae 7713) [µg/mL] | MIC (μg/mL) E. faecium 1042 (E. faecium 1042) [µg/mL] | MIC (μg/mL) S. aureus 129 (S. aureus 129) [µg/mL] | MIC (μg/mL) S. aureus 103 (S. aureus 103) [µg/mL] | MIC (μg/mL) P. aeruginosa 112 (P. aeruginosa 112) [µg/mL] | MIC (μg/mL) P. aeruginosa 119 (P. aeruginosa 119) [µg/mL] | MIC (μg/mL) S. aureus CICC25138 (S. aureus CICC25138) [µg/mL] | MIC (μg/mL) E.coli CMCC44102 (E.coli CMCC44102) [µg/mL] | MIC (μg/mL) S. aureus CMCC26003 (S. aureus CMCC26003) [µg/mL]
CC[C@H](C)[C@H](NC(=O)[C@H](CCCCN)NC(=O)[C@H](Cc1c[nH]c2ccccc12)NC(=O)[C@@H](N)CCCCN)C(=O)N[C@@H](CCCCN)C(=O)N[C@@H](Cc1c[nH]c2ccccc12)C(=O)N[C@@H](Cc1c[nH]cn1)C(=O)N[C@H](C(=O)N[C@@H](CCCNC(=N)N)C(=O)N[C@@H](Cc1c[nH]c2ccccc12)C(=O)N[C@@H](Cc1ccccc1)C(=O)N[C@@H](CCCNC(=N)N)C(=O)N[C@H](C(=O)N[C@@H](CC(C)C)C(N)=O)C(C)C)C(C)C [QLX-3DV-10] (H-KWKIKWHVRWFRVL-NH2) | 8 (≈ 4.04 µM) | 8 (≈ 4.04 µM) | 32 (≈ 16.1 µM) | 32 (≈ 16.1 µM) | 16 (≈ 8.07 µM) | 16 (≈ 8.07 µM) | 8 (≈ 4.04 µM) | 16 (≈ 8.07 µM) | 8 (≈ 4.04 µM) | 32 (≈ 16.1 µM) | 64 (≈ 32.3 µM) | 32 (≈ 16.1 µM) |  | 
CC[C@H](C)[C@H](NC(=O)[C@H](CCCNC(=N)N)NC(=O)[C@H](Cc1c[nH]c2ccccc12)NC(=O)[C@H](CCCCN)NC(=O)[C@H](CCC(N)=O)NC(=O)[C@H](CCCNC(=N)N)NC(=O)[C@@H](N)CCCNC(=N)N)C(=O)N[C@@H](CC(C)C)C(=O)N[C@@H](C)C(=O)N[C@@H](CC(C)C)C(=O)N[C@@H](CC(N)=O)C(=O)N[C@H](C(=O)N[C@@H](Cc1c[nH]c2ccccc12)C(=O)N[C@@H](CCCCN)C(N)=O)[C@@H](C)CC [QLX-3DV-11] (H-RRQKWRILALNIWK-NH2) | 4 (≈ 2.13 µM) | 32 (≈ 17 µM) | 4 (≈ 2.13 µM) | 8 (≈ 4.25 µM) | 8 (≈ 4.25 µM) | 8 (≈ 4.25 µM) | 4 (≈ 2.13 µM) | 4 (≈ 2.13 µM) | 16 (≈ 8.51 µM) | 4 (≈ 2.13 µM) | 32 (≈ 17 µM) | 16 (≈ 8.51 µM) | 4 (≈ 2.13 µM) | 2 (≈ 1.06 µM)
CC(C)C[C@H](NC(=O)[C@H](Cc1ccccc1)NC(=O)[C@H](CCCCN)NC(=O)[C@H](Cc1c[nH]c2ccccc12)NC(=O)[C@H](Cc1c[nH]c2ccccc12)NC(=O)[C@@H]1CCCN1C(=O)[C@H](CCCNC(=N)N)NC(=O)[C@@H](NC(=O)[C@H](Cc1ccccc1)NC(=O)[C@H](CCCCN)NC(=O)[C@H](CCCNC(=N)N)NC(=O)[C@H](Cc1c[nH]c2ccccc12)NC(=O)[C@H](CCCNC(=N)N)NC(=O)[C@H](CCCCN)NC(=O)[C@H](Cc1ccc(O)cc1)NC(=O)[C@H](CCC(N)=O)NC(=O)[C@@H](N)CCCNC(=N)N)C(C)C)C(=O)N[C@@H](CCCCN)C(=O)N[C@@H](CC(=O)O)C(N)=O [QLX-3DV-14] (H-RQYKRWRKFVRPWWKFLKD-NH2) | 8 (≈ 2.94 µM) | 32 (≈ 11.8 µM) | 8 (≈ 2.94 µM) | 16 (≈ 5.88 µM) | 8 (≈ 2.94 µM) |  |  | 16 (≈ 5.88 µM) | 8 (≈ 2.94 µM) | 4 (≈ 1.47 µM) | 128 (≈ 47 µM) | 32 (≈ 11.8 µM) | 4 (≈ 1.47 µM) | 8 (≈ 2.94 µM)
CC[C@H](C)[C@H](NC(=O)[C@H](CC(C)C)NC(=O)[C@@H](NC(=O)[C@H](C)NC(=O)[C@@H](N)CC(C)C)C(C)C)C(=O)N[C@@H](Cc1ccccc1)C(=O)N[C@H](C(=O)N[C@@H](CCCNC(=N)N)C(=O)N[C@@H](CCCNC(=N)N)C(=O)N[C@@H](CCCCN)C(=O)N[C@@H](CCC(N)=O)C(=O)N[C@@H](CC(C)C)C(N)=O)C(C)C [QLX-3DV-17] (H-LAVLIFVRRKQL-NH2) | 16 (≈ 11 µM) |  | 32 (≈ 22 µM) | 16 (≈ 11 µM) | 64 (≈ 44 µM) |  | 8 (≈ 5.5 µM) | 16 (≈ 11 µM) | 32 (≈ 22 µM) |  | 64 (≈ 44 µM) | 32 (≈ 22 µM) | 8 (≈ 5.5 µM) | 4 (≈ 2.75 µM)
CC[C@H](C)[C@H](NC(=O)[C@H](Cc1c[nH]c2ccccc12)NC(=O)[C@@H]1CCCN1C(=O)[C@H](CC(C)C)NC(=O)[C@H](CCCCN)NC(=O)[C@H](Cc1c[nH]c2ccccc12)NC(=O)[C@H](C)NC(=O)[C@H](CCCNC(=N)N)NC(=O)[C@H](CCC(N)=O)NC(=O)[C@H](CCC(N)=O)NC(=O)[C@@H](N)Cc1ccc(O)cc1)C(=O)N[C@@H](CC(C)C)C(=O)N[C@@H](CCCNC(=N)N)C(=O)N[C@@H](Cc1ccccc1)C(=O)N[C@@H](CC(C)C)C(=O)N[C@@H](CCCNC(=N)N)C(=O)N[C@@H](CC(C)C)C(N)=O [QLX-3DV-18] (H-YQQRAWKLPWILRFLRL-NH2) | 8 (≈ 3.5 µM) |  | 32 (≈ 14 µM) | 8 (≈ 3.5 µM) |  | 64 (≈ 28 µM) | 8 (≈ 3.5 µM) | 32 (≈ 14 µM) | 16 (≈ 7 µM) | 8 (≈ 3.5 µM) | 64 (≈ 28 µM) | 16 (≈ 7 µM) | 16 (≈ 7 µM) | 16 (≈ 7 µM)
CC[C@H](C)[C@H](N)C(=O)N[C@H](C(=O)N[C@H](C(=O)N[C@@H](CCCNC(=N)N)C(=O)N[C@@H](Cc1ccccc1)C(=O)N[C@@H](CC(C)C)C(=O)N[C@@H](CCCCN)C(=O)N1CCC[C@H]1C(=O)N[C@@H](CCCCN)C(=O)N[C@@H](CC(C)C)C(=O)N[C@@H](CC(C)C)C(=O)N[C@@H](CCCCN)C(=O)N[C@@H](C)C(=O)N[C@@H](CC(C)C)C(=O)N[C@@H](CCCCN)C(N)=O)[C@@H](C)CC)C(C)C [QLX-3DV-19] (H-IVIRFLKPKLLKALK-NH2) | 16 (≈ 8.99 µM) | 32 (≈ 18 µM) | 8 (≈ 4.5 µM) | 32 (≈ 18 µM) | 128 (≈ 71.9 µM) | 32 (≈ 18 µM) |  | 128 (≈ 71.9 µM) | 64 (≈ 36 µM) | 16 (≈ 8.99 µM) | 128 (≈ 71.9 µM) | 128 (≈ 71.9 µM) | 16 (≈ 8.99 µM) | 4 (≈ 2.25 µM)
CC[C@H](C)[C@H](N)C(=O)N[C@@H](CCCNC(=N)N)C(=O)N1CCC[C@H]1C(=O)N[C@@H](CC(C)C)C(=O)N[C@H](C(=O)N[C@@H](CCC(N)=O)C(=O)N1CCC[C@H]1C(=O)N[C@@H](CCCNC(=N)N)C(=O)N[C@@H](Cc1ccc(O)cc1)C(=O)N[C@@H](CCCNC(=N)N)C(=O)N[C@@H](Cc1ccccc1)C(=O)N[C@@H](Cc1ccc(O)cc1)C(=O)N1CCC[C@H]1C(=O)N[C@@H](CCCNC(=N)N)C(=O)N[C@@H](CCCCN)C(=O)N[C@@H](CCCNC(=N)N)C(=O)N[C@@H](CC(C)C)C(N)=O)C(C)C [QLX-3DV-20] (H-IRPLVQPRYRFYPRKRL-NH2) | 64 (≈ 28.3 µM) |  | 32 (≈ 14.2 µM) | 16 (≈ 7.09 µM) |  | 64 (≈ 28.3 µM) | 64 (≈ 28.3 µM) | 64 (≈ 28.3 µM) |  | 32 (≈ 14.2 µM) |  |  | 16 (≈ 7.09 µM) | 16 (≈ 7.09 µM)
